Measurements from patent US20110039770A1, “INHIBITORS OF PROTEIN KINASE C ISOFORMS AND USES THEREOF” (PHARMAGAP INC., priority 2005, published 2011).
Where a SMILES comes first, the peptide text is derived from it. The star is where a group is joined. PNA(A) = NCCN(CC(=O)*)C(=O)Cn1cnc2c(N)ncnc21

How the values were obtained:
[1] = molecular target: T1, PKC-β (Homo sapiens, UniProt P05771); test: Competition of PRE with PKC-β antibody binding, Protocol B, IMR-32
T1 construct: PRE 2 and PRE 3 in IMR-32 Neuroblastoma Cells: Protocol A; endogenous in cells; host or cells: IMR-32 human neuroblastoma cells
T1 sequence (P05771 whole entry): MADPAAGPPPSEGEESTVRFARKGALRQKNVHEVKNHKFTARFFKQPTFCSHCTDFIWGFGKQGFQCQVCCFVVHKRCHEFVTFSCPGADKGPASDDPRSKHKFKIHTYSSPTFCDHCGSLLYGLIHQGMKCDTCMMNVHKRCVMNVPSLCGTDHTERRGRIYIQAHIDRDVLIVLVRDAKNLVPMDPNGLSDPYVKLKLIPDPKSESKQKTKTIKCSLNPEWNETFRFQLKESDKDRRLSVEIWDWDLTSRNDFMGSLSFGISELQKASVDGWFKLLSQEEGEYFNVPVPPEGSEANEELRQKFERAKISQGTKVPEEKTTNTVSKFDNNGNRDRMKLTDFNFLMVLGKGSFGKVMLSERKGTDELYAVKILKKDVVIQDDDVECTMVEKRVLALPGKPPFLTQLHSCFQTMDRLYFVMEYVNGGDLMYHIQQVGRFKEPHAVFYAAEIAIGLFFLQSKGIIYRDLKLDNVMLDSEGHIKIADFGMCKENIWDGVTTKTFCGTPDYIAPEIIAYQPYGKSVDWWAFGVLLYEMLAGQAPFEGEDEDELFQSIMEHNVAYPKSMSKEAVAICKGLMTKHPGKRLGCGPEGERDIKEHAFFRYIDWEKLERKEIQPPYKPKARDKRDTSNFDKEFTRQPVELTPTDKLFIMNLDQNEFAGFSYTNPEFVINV
Protocol: The ability of the peptides PRE 2 and PRE 3 (see Table 4) to interfere with the binding of a PKC-α-specific polyclonal antibody (Santa Cruz Biotechnology, Inc.) to PKC-α was determined using a modified version of the protocol outlined above in which the test peptide was added directly to the cell extract prior to electrophoresis at a concentration of either 5× or 15× the concentration of the protein applied to each well of the gel for the Western blots (20 μg).
Peptides PRE 2 and PRE 3 (see Table 4) were tested for their ability to interfere with the binding of a PKC-β-specific polyclonal antibody (Santa Cruz Biotechnology, Inc.) to PKC-β using the general protocol described in Example 3.

[2] = tested on: MDA MB231 cells; test: Matrigel invasion/migration with EGF as chemoattractant; type: cell-based, human; settings: 24 h; 10 ng/ml EGF
Protocol: Experiments were conducted to investigate the effect of compound TIM 10 (5 mM dose) on migration of human breast cancer cells (MDA MB231) with and without EGF (10 ng/ml) as a chemo-attractant. A standard a two-chamber culture system (BD BIOcoat™ Matrigel™ Invasion Chamber; BD Biosciences Clont, Discovery labware, Immunocytometry system Pharmingen) was employed for these experiments. Control chambers used in the following experiment are similar to the invasion chambers except that no Matrigel matrix is present, thus allowing cells to freely reach the lower membrane surface through the membrane pores.
The ability of compound TIM 10 to inhibit invasion/migration of MDA MB231 cells in the presence of the chemoattractant EGF was measured as described above using EGF 10 ng/mL as the chemoattractant.

[3] = molecular target: PKC beta 1 (Homo sapiens, UniProt P05771); test: Kinase-Glo Luminescent Kinase Assay; type: biochemical; parameters: purchased; settings: read-out: % Inhibition PKC-βI
PKC beta 1, sequence (P05771 whole entry, canonical isoform): as the sequence (P05771 whole entry) above
Protocol: (§1) Compounds TIM 10, 11, 13, 14, 15, and 18-22 (see Table 28) were tested for their ability to inhibit the activity of PKC-alpha, beta 1, delta and epsilon isoforms the Kinase-Glo™ Luminescent Kinase Assay (Promega, Cat # V6712/3/4) following the manufacturer's instructions.

[4] = molecular target: T2, PKC epsilon (Homo sapiens, UniProt Q02156); test: Kinase-Glo Luminescent Kinase Assay; type: biochemical; parameters: purchased; settings: read-out: % Inhibition PKC-ε
T2 sequence (Q02156 1-737): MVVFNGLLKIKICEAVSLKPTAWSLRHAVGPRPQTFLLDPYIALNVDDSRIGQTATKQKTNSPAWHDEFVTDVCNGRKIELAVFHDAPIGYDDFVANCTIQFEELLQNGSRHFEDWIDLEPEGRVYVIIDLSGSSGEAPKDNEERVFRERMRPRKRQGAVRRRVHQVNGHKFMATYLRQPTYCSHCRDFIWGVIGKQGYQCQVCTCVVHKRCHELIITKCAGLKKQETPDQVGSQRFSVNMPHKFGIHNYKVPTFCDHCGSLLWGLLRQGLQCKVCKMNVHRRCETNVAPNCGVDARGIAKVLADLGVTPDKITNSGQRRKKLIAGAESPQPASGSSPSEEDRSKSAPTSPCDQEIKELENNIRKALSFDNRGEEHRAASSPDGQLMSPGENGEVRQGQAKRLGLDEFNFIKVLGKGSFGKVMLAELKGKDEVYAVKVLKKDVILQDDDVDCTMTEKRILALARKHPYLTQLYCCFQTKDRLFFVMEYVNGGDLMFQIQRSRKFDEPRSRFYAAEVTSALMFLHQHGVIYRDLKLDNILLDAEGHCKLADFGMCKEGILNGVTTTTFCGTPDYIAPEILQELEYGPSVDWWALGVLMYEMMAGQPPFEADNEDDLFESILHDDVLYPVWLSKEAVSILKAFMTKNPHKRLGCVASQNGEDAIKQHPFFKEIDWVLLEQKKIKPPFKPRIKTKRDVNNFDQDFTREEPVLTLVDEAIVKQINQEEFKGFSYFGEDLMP
Protocol: as §1

| SMILES | Band Intensity ([1]; 100 μg) | Relative Intensity (%) ([1]; 100 μg) | Band Intensity ([1]; 200 μg) | Band Intensity ([1]; 300 μg) | Relative Intensity (%) ([1]; 300 μg) | inhibition in cell growth [2] [%] | inhibition at 15 µM ([3]; 15.0 μM) [%] | inhibition at 30 µM ([3]; 30.0 μM) [%] | inhibition at 15 µM ([4]; 15.0 μM) [%] | inhibition at 30 µM ([4]; 30.0 μM) [%] |
| --- | --- | --- | --- | --- | --- | --- | --- | --- | --- | --- |
| CC[C@H](C)[C@H](NC(=O)[C@H](CO)NC(=O)[C@@H](NC(=O)CNC(=O)[C@@H](NC(=O)[C@H](CC(C)C)NC(=O)[C@H](CC(N)=O)NC(=O)[C@H](CCC(N)=O)NC(=O)[C@H](C)NC(=O)[C@H](CC(=O)O)NC(=O)CNC(=O)CNC(=O)[C@H](CCCCN)NC(=O)[C@@H](NC(=O)[C@H](CCC(=O)O)NC(=O)[C@H](CCC(N)=O)NC(=O)[C@@H](NC(=O)CNC(=O)[C@H](CCCCN)NC(=O)[C@H](C)NC(C)=O)[C@@H](C)CC)C(C)C)[C@@H](C)CC)[C@@H](C)CC)C(N)=O [PRE 3] (Ac-AKGIQEVKGGDAQNLIGISI-NH2) | 0.0 | 0.0 | 0.0 | 0.0 | 0.0 | – | – | – | – | – |
| CC[C@H](C)[C@H](NC(=O)[C@H](CO)NC(=O)[C@@H](NC(=O)CNC(=O)[C@@H](NC(=O)[C@H](CC(C)C)NC(=O)[C@H](CC(N)=O)NC(=O)[C@H](CCC(N)=O)NC(=O)[C@H](C)NC(=O)[C@H](CC(=O)O)NC(=O)[C@H](CCCCN)NC(=O)CNC(=O)CNC(=O)CNC(=O)CNC(=O)CNC(=O)CNC(=O)CNC(=O)[C@H](CC(C)C)NC(=O)[C@H](CCCNC(=N)N)NC(=O)[C@H](Cc1ccccc1)NC(=O)[C@H](CCCCNC(=O)CN(CCN)C(=O)Cn1cnc2c(N)ncnc21)NC(=O)[C@H](CCCNC(=N)N)NC(=O)[C@H](CCCNC(=N)N)NC(=O)[C@H](Cc1ccccc1)NC(C)=O)[C@@H](C)CC)[C@@H](C)CC)C(N)=O [TIM 10] (Ac-FRRK(PNA(A))FRLGGGGGGGKDAQNLIGISI-NH2) | – | – | – | – | – | 25 | 74 | 100 | -11 | 85 |
